Measurements: patent US20160007585A1, “INSECT CONTROL DEVICE” (Clarke Mosquito Control Products, Inc., priority 2014, published 2016)

Test system: Anopheles gambiae
Assay: Attraction tests in outdoor screenhouses: mosquitoes caught in MM-X or BG Sentinel traps baited with plant-based volatile organic compounds
Type: in vivo
Conditions: single compounds suspended in mineral oil; 300-400 released
Protocol: Attraction tests were conducted in two sizes of outdoor screenhouses (˜5.5×7 m and 11×7 m, each>3 m high) at the Mbita research station (Odhiambo Campus, Kenya) of the International Centre of Insect Physiology & Ecology (ICIPE). The screenhouses provided a semi-natural physical environment that allowed experimental control over mosquito sample size and recovery of marked and/or released mosquitoes. It was noted that fluctuations of weather conditions would cause variations in flight behavior from night to night, affecting attraction to volatile organic compounds. The walls and ceiling were lined with netting to reduce interference from ants and spiders and to prevent mosquitoes from aggregating in the vaulted ceiling. The floor was a bed of sand, dampened daily. On the floor at each corner of the screenhouse, dampened pots served as resting harborages, which the mosquitoes typically entered at dawn. When local potted plants were included in the environment, they were spaced throughout the floor.
Tested mosquitoes were the Mbita strain of Anopheles gambiae, colonized locally about 14 years ago, but with infusions of field material in some subsequent years, to maintain genetic diversity. Adults emerging each night from daily collections of pupae were fed water only and were tested in the screenhouses the following night. At this age, both sexes still have adequate deposits of somatic energy from larval feeding but will die during the following 1.5 days without nutrients. Before sunset, the volatile organic compounds baits were installed in mosquito traps, their fans were turned on, and the mosquitoes were released from a small cage prepared for that purpose.
Attraction was measured as the number of mosquitoes caught in MM-X or BG Sentinel traps baited with plant-based volatile organic compounds. The volatile organic compounds were prepared as individual compounds suspended in mineral oil, which controlled release rate according to dosage (concentration) while also retarding release rate of all compounds. Each compound was released separately from other compounds when more than one was released simultaneously. The oil-volatile organic compound suspensions were applied to two different types of release substrates: long nylon fabric strips in the exhaust tube of the trap, and short cotton wicks suspended in a wire basket beneath the exhaust tube. […] As an example of the tested volatile organic compounds, the release profiles of hexanol and phenylacetaldehyde (suspended in hexane or mineral oil, applied to nylon sock or cotton wick) as measured in a MM-X trap is shown in FIGS. 19a and 19b, respectively. The release profiles of hexanol, linalool oxide, ocimene, pinene, and 6-methyl-5-hepten-2-one are similar to phenylacetaldehyde.
The layout of traps was designed to maximize discrimination among traps releasing different plant-based volatile organic compounds or releasing none (the blank control). The small screenhouses contained 2 traps, positioned diagonally. The large screenhouses contained 4 traps. In both sizes, the traps were near the corners, but not so close to the netting walls as to interfere with mosquito flight around the traps or the free flow of the odor plume from the traps. For replicates of each test, the positions of the traps were rotated, to minimize positional bias for one of these variables: a particular compound, particular dose of a compound, or particular combination of several compounds or their proportions. In early tests, a blank trap was always included. But after establishing that a blank trap never caught more than 10 mosquitoes, out of 300-400 released, blank traps were usually replaced by one with a bait using volatile organic compounds. The number trapped out of the total number released, expressed as a percentage, was seldom calculated, because of the large and variable numbers of mosquitoes unaccounted for by trap and aspirator recapture. […]

| Compound | attraction score (number of mosquitoes caught in baited trap), in words |
| --- | --- |
| CCCCCCO [Hexanol, hexanol] | good scores even at low dosages, with little or no improvement at higher doses |
| CCOC(=O)Cc1ccccc1 [ethylphenylacetate] | in higher dosages (and therefore higher release rates) gave higher attraction scores |
| C=CC(C)(O)CCC=C(C)C (stereo not drawn) [linalool] | in higher dosages (and therefore higher release rates) gave higher attraction scores |
| C=CC(C)=CCC=C(C)C [ocimene] | in higher dosages (and therefore higher release rates) gave higher attraction scores |
| O=CCc1ccccc1 [phenylacetaldehyde] | weak or mediocre |
| caryophyllene | in higher dosages (and therefore higher release rates) gave higher attraction scores |
